Values after ≈ are worked out from the molar mass of the structure shown. Values joined by “and” are separate entries in the source; they are usually repeats but may differ in a detail not shown here. Identical values can stand only once. Like-named read-outs stand apart in the source and are kept apart here.

In data set [1] the test system is monkey kidney cells (Vero). The data set can be described thus: In vitro toxicity, Vero cells. The format is cell-based. To be noted: Primates. How it is done:
Twenty six compounds (including 37, 59 and 109) were tested in an in vitro model of toxicity using monkey kidney cells (Vero) and human cervical cancer cells (HeLa) using methods well known to those skilled in the art. The data from this toxicity testing and the MIC data were used to calculate a selectivity index (SI), the ratio of IC50:MIC (Table 15). Selectivity Indexes were ranging from 1.76 to 16.67.

In data set [2] the test system is M. tuberculosis H37Rv. Briefly: In vivo efficacy, mice infected i.v. with M. tuberculosis, CFU in spleen and lungs. On the set-up: species or system C57BL/6 mice.
Data set [3] has as its system H37Rv strain of Mycobacterium tuberculosis. The data set can be described thus: microbe, parasite or virus in culture. The format is cell-based.
The test system of data set [4] is cells. Briefly: LD50 for selectivity index (Table 10). The format is cell-based, Mycobacterium tuberculosis. The text has this: Table 10 lists MIC and LD50 data for selected compounds. […] Table 11 lists MIC data for purified substituted ethylene diamines in comparison to ethambutol (EMB).
In data set [5] the test system is M. tuberculosis H37Rv. The data set can be described thus: MIC by BACTEC 460. The data set is classed as cell-based, Mycobacterium tuberculosis. To be noted: for MIC: Mycobacterium tuberculosis, H37RV, read-out: MIC (BACTEC).
The test system of data set [6] is RIF^R M. tuberculosis isolate 2482. The data set can be described thus: microbe, parasite or virus in culture. To be noted: for concentration to which the strain was susceptible: strain 2482; for MIC (BACTEC): Strain 2482. The data set is classed as cell-based.
The subject of data set [7] is RIF^R M. tuberculosis isolate 3185. Briefly: microbe, parasite or virus in culture. The data set is classed as cell-based. To be noted: for concentration to which the strain was susceptible: strain 3185.
The test system of data set [8] is wild type of M.tb. The data set can be described thus: MIC, secondary screening, wild type. The format is cell-based, Mycobacterium tuberculosis. To be noted: Mycobacterium tuberculosis, WT.
The test system of data set [9] is M. tuberculosis H37Rv (Pasteur). Briefly: Rapid in vivo model of TB, body weight of infected mice. Further details: species or system C3H female mice. To be noted: single drug alone (SQ109 10 mg/kg; RIF 2 mg/kg), by the 3 wk.
For data set [10], the system named is M. tuberculosis H37Rv. Briefly: Standard chronic mouse model of tuberculosis, CFU in lung. The format is in vivo, C57BL/6 female mice. To be noted: RIF (20 mg/kg) by itself, 4 week therapy.
[11] abbreviates: Mycobacterium tuberculosis, H37RV, Table 15, read-out: MIC.
The mark [12] stands for this setting: Mycobacterium tuberculosis, H37RV, read-out: MIC.
The mark [13] stands for this setting: EMB, RL241, Cmpd#59 as 2HCl salt, Cmpd#109 as 2CF3COOH salt, read-out: MIC.
The mark [14] stands for this setting: Mycobacterium tuberculosis, read-out: MIC (BACTEC).

What is called IC50 is the point on the concentration scale where inhibition reaches its midpoint. For the compound `COc1ccccc1CCNCCNC1C2CC3CC(C2)CC1C3` (stereo not drawn) [Compound 73, N-(2-Adamantyl)-N′-[2-(2-methoxyphenyl)ethyl]ethane-1,2-diamine], in data set [1], the 50% inhibitory concentration (IC50) came to 81 µM. For the same compound, the “activity in the spleen compared with EMB” value in [2] (1 mg/kg and 10 mg/kg, 5×10^5 CFU, chemotherapy from day 20) is “equal to that of EMB at 100 mg/kg”. In addition, in data set [3] (setting [11]), the MIC amounted to 12.5 µM.

For `CCC1CCCCN1CCNC/C=C(\C)CCC=C(C)C` (stereo not drawn) [Compound 111, N-[2-(N′-Geranyl)aminoethyl]-2-ethylpiperidine], the “SI (Selectivity Index)” value in [4] (LD50 : MIC) is reported as 5.632. The “LD50” value in data set [4] (concentration at which 50% of the cells are killed) was determined as 44 µM; in data set [4] (from uM and MW), 18.128 µg/mL. This compound also registered an IC50 in data set [1] of 45 µM. Moreover, the “anti-tuberculosis activity compared with EMB” value in data set [2] (10 mg/kg, B6 mice, 5×10^5 CFU, chemotherapy from day 20) is recorded as “comparable to that of EMB at 100 mg/kg”. Further, the “activity in vivo, spleen and lung” value in [2] (25 mg/kg, 5×10^6 CFU, 4 weeks) was “active in vivo in both spleen and lung”. In addition, the “MIC” value in data set [3] is 7.813 µM and 7.8 µM; in [3] (Mycobacterium tuberculosis, H37RV, Table 10, from uM and MW, read-out: MIC), 3.22 µg/mL; in data set [3] (Mycobacterium tuberculosis, H37RV, Table 10, read-out: MIC), 7.81 µM; in [3] (setting [11]) it was 7.81 µM; in data set [3] (setting [12]), 7.81 µM.

For the compound `NNC(=O)c1ccncc1` [INH, Isoniazid], the MIC stood at 0.025 µg/mL (≈ 0.182 µM) in [5] and 0.91 µM in [3] (setting [12]). For the same compound, the “concentration to which the strain was susceptible” value in data set [6] and in [7] was 0.1 mg/L throughout. In addition, in data set [2] (INH 25 mg/kg), the “activity in spleen and lung, rank among drugs” value is “the most active drug in both spleen and lung”. For the same compound, the “decrease of load of bacteria in organs” value in data set [2] (during 4-6 weeks of chemotherapy) is listed as 2-3 logs.

Consider `CC1(C)CC2CC(C)(CN2CCNC[C@@H]2CCC3C[C@@H]2C3(C)C)C1` [MP 116], for which the MIC in data set [8] (setting [13]) stood at 6.25 µg/mL.

On to `C[C@@H]1C2C[C@@H](C[C@H]1NCCNC[C@@H]1CCC3C[C@@H]1C3(C)C)C2(C)C` [MP 117], for which the MIC in data set [8] (setting [13]) is 6.25 µg/mL.

Turning to `CO[C@H]1/C=C/O[C@@]2(C)Oc3c(C)c(O)c4c(O)c(c(/C=N/N5CCN(C)CC5)c(O)c4c3C2=O)NC(=O)/C(C)=C\C=C\[C@H](C)[C@H](O)[C@@H](C)[C@@H](O)[C@@H](C)[C@H](OC(C)=O)[C@@H]1C` [RIF, Rifampicin], the “MIC (BACTEC)” value in [5] (H37Rv) was 0.17 mg/L (≈ 0.207 µM); in data set [6] (listed as Rifampicin), > 100 mg/L; in data set [6] (listed as rifampicin), > 100 mg/L; in [7] (isolate 3185), 24 µg/mL (≈ 29.2 µM). In addition, the MIC is 0.2 µg/mL (≈ 0.243 µM) in data set [5], > 100 µg/mL in [6] (setting [14]) and 24 µg/mL (≈ 29.2 µM) in [7] (setting [14]). Also, the average weight in data set [9] was 19.7 g. In data set [10], this compound displayed a CFU in lung of 5.8 log10.

As for `CC1(C)C2CCC(CNCCNCC(c3ccccc3)c3ccccc3)[C@@H]1C2` (stereo partly drawn) [RL 241], the MIC in data set [8] (value in brackets, read-out: MIC (or uM)) worked out at 3.34 µM; in [8] (setting [13]) it was 1.5 µg/mL.

Regarding `[H]/N=C(/N)N[C@H]1[C@H](O)[C@@H](O)[C@H](O[C@@H]2O[C@@H](C)[C@](O)(C=O)[C@H]2O[C@@H]2O[C@@H](CO)[C@H](O)[C@@H](O)[C@@H]2NC)[C@@H](N/C(N)=N\[H])[C@@H]1O` [SM, Streptomycin], the MIC in [5] stood at 0.25 µg/mL (≈ 0.43 µM). Besides, the “concentration to which the strain was susceptible” value in [6] and in data set [7] was 2 mg/L in each case.

For the origin of these results see patent US8202910B2 (Sequella, Inc., priority 2006, dated 2012).
